Measurements from US20220002806A1, “BIOMARKER” (ERBER AKTIENGESELLSCHAFT, priority 2018, published 2022).

Tests used:
weaned female piglets = test: Feeding trial in weaned female piglets: vulva surface, reproductive tract weight, body weight; type: in vivo, pig; conditions: for reproductive tract weight relative to body weight, average (±SD): [reproductive tract (in grams)/body weight (in kg)]*100; for increase of vulva surface compared to the control group: d 26
Source text: Weaned female piglets (sow: Landrace×Large White, boar: Pietrain; 30+/−2 days old) were obtained from a local producer and individually tagged. Piglets were housed in slatted floor pens under controlled environmental conditions. After an acclimatization period of seven days, twenty-four female piglets were selected based on both body weight and vulva size, and allocated to one of four groups (6 animals/group). Piglets received either blank feed (negative control; Ctrl) or feed contaminated with ZEN in three increasing concentrations (ZEN low: 0.17 mg/kg diet; ZEN medium: 1.5 mg/kg diet; ZEN high: 4.6 mg/kg diet). During the 28-day experimental period, each treatment group was given free access to water and the assigned diet. The pigs were observed daily and weighed weekly.
Diets were manufactured at BIOMIN AN (Herzogenburg, Austria), and formulated according to the energy and amino acid requirements for piglets. Four different batches were prepared, one control batch and three batches artificially contaminated with ZEN (Fermentek LTD, Israel; purity >99.2%). Homogenous distribution of ZEN within the diets was achieved by preparation of maltodextrin premixes, which contained appropriate amounts of ZEN and were added to the basal feed at an inclusion rate of 0.9% (w/w). Final ZEN concentrations were verified by HPLC-MS (Romer Labs GmbH) and confirmed.
Blood was collected weekly (d 0, 6, 14, 21 and 28) from individual animals by punctuation of the vena cava cranialis (Primavette® EDTA, Kabe Labortechnik GmbH, Nümbrecht-Elsenroth, Deutschland). After centrifugation (1500×g, 20 min), serum samples were stored at −80° C. for later analysis. Vulva length and width were measured at regular intervals with a caliper to determine the dietary ZEN effects. The vulva area was calculated as vulva length×vulva width, as previously reported (Jiang et al. 2011. Journal of animal science, 89, 3008-3015). Eight measurements were done per piglet over the experimental period.
After 28 days of dietary exposure to the experimental diets, pigs were anesthetized by intramuscular injection of ketamine (0.1 mL/kg body weight (b.w.) Narketan®, Vétoquinol GmbH, Ravensburg, Germany) and azaperone (0.03 mL/kg b.w.; Stresnil®, Janssen-Cilag, Neuss, Germany). Subsequently, animals were euthanized by intracardial injection of T61® (Intervet, UnterschleiBheim, Germany; 0.1 ml/kg b.w.). The whole reproductive tract was collected, weighed and examined for any clinical signs. Small pieces of the corpus uteri and the mid-jejunum were dissected, placed into 1 mL of RNAlater, and stored overnight at 4° C. The next day, all the tissue samples were transferred to −80° C. for long-term storage, and until processed for transcriptomics analysis.

estrogen receptors α = estrogen receptors α (Homo sapiens, UniProt P03372); conditions: Zinedine et al. 2007; cited from earlier work
Sequence of estrogen receptors α (P03372 whole entry): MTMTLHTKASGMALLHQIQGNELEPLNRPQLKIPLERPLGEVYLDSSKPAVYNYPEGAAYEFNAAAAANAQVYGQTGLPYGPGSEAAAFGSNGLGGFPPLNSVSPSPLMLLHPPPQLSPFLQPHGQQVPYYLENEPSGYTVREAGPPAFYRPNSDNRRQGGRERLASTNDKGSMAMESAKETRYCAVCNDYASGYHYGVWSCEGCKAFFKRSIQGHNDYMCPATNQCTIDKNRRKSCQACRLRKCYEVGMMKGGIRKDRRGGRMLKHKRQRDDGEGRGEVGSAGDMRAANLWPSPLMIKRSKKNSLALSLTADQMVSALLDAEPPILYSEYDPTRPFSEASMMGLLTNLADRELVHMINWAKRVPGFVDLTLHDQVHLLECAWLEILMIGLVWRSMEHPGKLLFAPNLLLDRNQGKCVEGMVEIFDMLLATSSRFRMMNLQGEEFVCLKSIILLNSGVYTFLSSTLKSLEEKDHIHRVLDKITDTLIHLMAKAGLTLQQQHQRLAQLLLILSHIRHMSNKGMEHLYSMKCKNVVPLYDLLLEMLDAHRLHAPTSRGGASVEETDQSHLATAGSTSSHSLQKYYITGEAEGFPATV

estrogen receptors β = estrogen receptors β (Homo sapiens, UniProt Q92731); conditions: Zinedine et al. 2007; cited from earlier work
Sequence of estrogen receptors β (Q92731 whole entry): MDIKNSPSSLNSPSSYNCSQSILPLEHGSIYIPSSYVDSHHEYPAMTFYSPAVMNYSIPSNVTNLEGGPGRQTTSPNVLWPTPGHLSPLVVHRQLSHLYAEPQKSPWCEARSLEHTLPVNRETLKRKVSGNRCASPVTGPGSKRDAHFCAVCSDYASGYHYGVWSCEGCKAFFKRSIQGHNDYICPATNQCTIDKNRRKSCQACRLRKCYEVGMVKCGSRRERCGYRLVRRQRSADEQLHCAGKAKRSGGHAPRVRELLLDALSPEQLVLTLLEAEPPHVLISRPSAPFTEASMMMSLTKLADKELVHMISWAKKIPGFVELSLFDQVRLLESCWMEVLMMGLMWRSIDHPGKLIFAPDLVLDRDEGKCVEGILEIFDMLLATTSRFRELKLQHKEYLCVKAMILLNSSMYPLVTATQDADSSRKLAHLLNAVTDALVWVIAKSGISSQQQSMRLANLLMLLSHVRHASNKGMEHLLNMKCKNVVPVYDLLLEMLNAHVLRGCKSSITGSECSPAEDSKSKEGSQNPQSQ

[1] = Zinedine et al. 2007; cited from earlier work
prepuberal gilts = prepuberal gilts fed diets containing 1-5 ppm ZEN; Osweiler; cited from earlier work
pregnane X receptor = biological target: T1, pregnane X receptor (Homo sapiens, UniProt O75469); conditions: in vitro; Ayed-Boussema et al. 2011; cited from earlier work
T1 sequence (O75469 1-434): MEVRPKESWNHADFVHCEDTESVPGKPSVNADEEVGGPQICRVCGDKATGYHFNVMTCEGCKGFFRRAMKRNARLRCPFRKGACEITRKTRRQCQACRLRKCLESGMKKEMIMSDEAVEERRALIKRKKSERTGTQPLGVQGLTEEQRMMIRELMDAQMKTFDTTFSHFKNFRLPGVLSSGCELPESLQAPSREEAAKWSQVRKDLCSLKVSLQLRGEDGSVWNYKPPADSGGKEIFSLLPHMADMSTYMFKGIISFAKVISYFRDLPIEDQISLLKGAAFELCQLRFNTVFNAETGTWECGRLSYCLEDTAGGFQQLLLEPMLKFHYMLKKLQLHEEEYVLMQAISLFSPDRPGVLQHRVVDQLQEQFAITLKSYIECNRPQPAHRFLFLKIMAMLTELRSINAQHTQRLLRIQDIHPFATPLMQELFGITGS

miR-7 = conditions: ovariectomized pigs; intraperitoneal injection of 112.5 mg ZEN per day; He et al. 2018; cited from earlier work

## C[C@H]1CCCC(=O)CCC/C=C/c2cc(O)cc(O)c2C(=O)O1 [ZEN, (2E,11S)-15,17-dihydroxy-11-methyl-12-oxabicyclo[12.4.0]octadeca-1(18),2,14,16-tetraene-7,13-dione]
Weaned female piglets; ZEN high (4.6 mg/kg diet)
  days of exposure after which vulva surface was significantly increased: six
  increase of vulva surface compared to the control group: +230%
Weaned female piglets; ZEN high (4.6 mg/kg diet), 28 days
  reproductive tract weight relative to body weight, average (±SD): 353.4±110.6
Weaned female piglets; ZEN low (0.17 mg/kg diet), 28 days
  reproductive tract weight relative to body weight, average (±SD): 55.8±17.2
Weaned female piglets; ZEN medium (1.5 mg/kg diet)
  days of exposure after which vulva surface was significantly increased: thirteen
  increase of vulva surface compared to the control group: +90%
Weaned female piglets; ZEN medium (1.5 mg/kg diet), 28 days
  reproductive tract weight relative to body weight, average (±SD): 121.4±43.4
Weaned female piglets; independent of the concentration (0.17-4.6 mg/kg diet), 28 days
  effect on the body weight of the piglets: no effect
Estrogen receptors α
  agonist action on estrogen receptor α: full
Estrogen receptors β
  agonist action on estrogen receptor β: partial agonist
[1]
  acute toxicity: low
Prepuberal gilts
  mammary gland development: triggered
Pregnane X receptor
  action on pregnane X receptor: activates
miR-7
  expression of miR-7 in pituitary tissue: increase
